In ChEMBL document CHEMBL1150735, “Phytochemical and pharmacological investigation of the cardioactive constituents of the leaf of Dysoxylum lenticellare” (J Nat Prod, 1987):

Experiments:
[1] = Cardiovascular activity in spontaneously beating rat right atria assessed as change in rate of contraction at 80 uM by microdynameter relative to control; format: functional; details: Right cardiac atrium
[2] = Cardiovascular activity in spontaneously beating rat right atria assessed as change in amplitude of contraction at 80 uM by microdynameter relative to control; format: functional; details: Right cardiac atrium
[3] = Solubility in water; format: physicochemical; details: buffer

solubility [3] | SMILES | Activity [1] | Activity [2]
 | CO[C@H]1CC=C2CCN3CCC(O)c4cc5c(cc4[C@]23C1)OCO5 (stereo partly drawn) | -6% | 11.5%
Insoluble | C=C1C[C@]23CC[C@@H]4C(C)(C)CCC[C@@]4(C)[C@@H]2CC[C@H]1C3 [PHYLLOCLADENE] |  | 
 | COc1ccc(CC[C@@H]2c3cc(OC)c(OC)cc3CCN2C)cc1OC | -6.7% | 16.3%
Insoluble | COc1cc2c(cc1OC)-c1cc3c(cc1CCCN(C)CC2)OCO3 [DYSAZECINE] |  | 
 | COc1cc2c(cc1OC)[C@@H](CCc1ccc3c(c1)OCO3)N(C)CC2 | -6.4% | 11.8%
